Test results reported in PubChem BioAssay (NCI).
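Following 48 hours of exposure in 96-well plates, responses at five concentrations were used to interpolate endpoints linearly. GI50 is the concentration that inhibits growth by half. The concentration for full growth arrest is given as TGI.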

Legend:
Assay in all cases: NCI tumour cell line growth inhibition, 48 h
MALME-3M melanoma = system: MALME-3M melanoma
A498 renal = system: A498 renal
NCI-H522 lung = system: NCI-H522 lung
UACC-62 melanoma = system: UACC-62 melanoma
IGROV1 ovarian = system: IGROV1 ovarian
HS 578T breast = system: HS 578T breast
MDA-MB-435 = system: MDA-MB-435
HT29 colon = system: HT29 colon
DU-145 prostate = system: DU-145 prostate
SK-MEL-5 melanoma = system: SK-MEL-5 melanoma
CAKI-1 renal = system: CAKI-1 renal
A549 NSCLC = system: A549 NSCLC
SK-MEL-2 melanoma = system: SK-MEL-2 melanoma
NCI-H460 lung = system: NCI-H460 lung
HOP-92 NSCLC = system: HOP-92 NSCLC
COLO 205 colon = system: COLO 205 colon
BT-549 breast = system: BT-549 breast
SR leukemia = system: SR leukemia
HL-60(TB) leukemia = system: HL-60(TB) leukemia
CCRF-CEM leukemia = system: CCRF-CEM leukemia
OVCAR-8 ovarian = system: OVCAR-8 ovarian
SF-295 CNS = system: SF-295 CNS
SF-539 CNS = system: SF-539 CNS
SN12C renal = system: SN12C renal
KM12 colon = system: KM12 colon
UO-31 renal = system: UO-31 renal
NCI-H226 lung = system: NCI-H226 lung
RPMI-8226 leukemia = system: RPMI-8226 leukemia
OVCAR-5 ovarian = system: OVCAR-5 ovarian
SW-620 colon = system: SW-620 colon
SNB-75 CNS = system: SNB-75 CNS
SF-268 CNS = system: SF-268 CNS
HCC-2998 colon = system: HCC-2998 colon
NCI/ADR-RES ovarian = system: NCI/ADR-RES ovarian
UACC-257 melanoma = system: UACC-257 melanoma
EKVX NSCLC = system: EKVX NSCLC
TK-10 renal = system: TK-10 renal
HCT-116 colon = system: HCT-116 colon
SK-OV-3 ovarian = system: SK-OV-3 ovarian
MDA-MB-231 breast = system: MDA-MB-231 breast
MDA-MB-468 breast = system: MDA-MB-468 breast
ACHN renal = system: ACHN renal
SNB-19 CNS = system: SNB-19 CNS
T-47D breast = system: T-47D breast
RXF 393 renal = system: RXF 393 renal
786-0 renal = system: 786-0 renal
OVCAR-4 ovarian = system: OVCAR-4 ovarian
MCF7 breast = system: MCF7 breast
HCT-15 colon = system: HCT-15 colon
SK-MEL-28 melanoma = system: SK-MEL-28 melanoma
OVCAR-3 ovarian = system: OVCAR-3 ovarian
K-562 leukemia = system: K-562 leukemia
MOLT-4 leukemia = system: MOLT-4 leukemia
HOP-62 NSCLC = system: HOP-62 NSCLC
PC-3 prostate = system: PC-3 prostate
NCI-H23 lung = system: NCI-H23 lung
M14 melanoma = system: M14 melanoma
U251 CNS = system: U251 CNS
LOX IMVI melanoma = system: LOX IMVI melanoma

## O=C(Nc1ccc(Cl)c(C(F)(F)F)c1)c1cncc(C#Cc2cnc3ccc(N4CCOCC4)nn23)c1
MALME-3M melanoma
  GI50: 854 nM
  TGI: 5620 nM
A498 renal
  GI50: 1980 nM
  TGI: 6820 nM
NCI-H522 lung
  GI50: 1600 nM
  TGI: 7490 nM
UACC-62 melanoma
  GI50: 785 nM
  TGI: 3630 nM
IGROV1 ovarian
  GI50: 579 nM
  TGI: 4960 nM
HS 578T breast
  GI50: 809 nM
  TGI: 4150 nM
MDA-MB-435
  GI50: 1440 nM
  TGI: > 81000 nM
HT29 colon
  GI50: 1000 nM
  TGI: 11100 nM
DU-145 prostate
  GI50: 2860 nM
  TGI: > 81000 nM
SK-MEL-5 melanoma
  GI50: 2070 nM
  TGI: 7780 nM
CAKI-1 renal
  GI50: 2070 nM
  TGI: 11100 nM
A549 NSCLC
  GI50: 2150 nM
  TGI: > 81000 nM
SK-MEL-2 melanoma
  GI50: 1310 nM
  TGI: 3230 nM
NCI-H460 lung
  GI50: 2670 nM
  TGI: 19100 nM
HOP-92 NSCLC
  GI50: 255 nM
  TGI: 1550 nM
COLO 205 colon
  GI50: 1170 nM
  TGI: 9920 nM
BT-549 breast
  GI50: 1430 nM
  TGI: 6620 nM
SR leukemia
  GI50: 1410 nM
  TGI: > 81000 nM
HL-60(TB) leukemia
  GI50: 256 nM
  TGI: 3870 nM
CCRF-CEM leukemia
  GI50: 2580 nM
  TGI: > 81000 nM
OVCAR-8 ovarian
  GI50: 2500 nM
  TGI: 19400 nM
SF-295 CNS
  GI50: 2650 nM
  TGI: 33900 nM
SF-539 CNS
  GI50: 160 nM
  TGI: 1640 nM
SN12C renal
  GI50: 749 nM
  TGI: > 81000 nM
KM12 colon
  GI50: 8.1 nM
  TGI: 46400 nM
UO-31 renal
  GI50: 562 nM
  TGI: 6240 nM
NCI-H226 lung
  GI50: 361 nM
  TGI: 12500 nM
RPMI-8226 leukemia
  GI50: 2420 nM
  TGI: > 81000 nM
OVCAR-5 ovarian
  GI50: 883 nM
  TGI: 18700 nM
SW-620 colon
  GI50: 1650 nM
  TGI: > 81000 nM
SNB-75 CNS
  GI50: 1150 nM
  TGI: 4590 nM
SF-268 CNS
  GI50: 2180 nM
  TGI: 31500 nM
HCC-2998 colon
  GI50: 2060 nM
  TGI: 15200 nM
NCI/ADR-RES ovarian
  GI50: 2450 nM
  TGI: 15000 nM
UACC-257 melanoma
  GI50: 2120 nM
  TGI: 21400 nM
EKVX NSCLC
  GI50: 2120 nM
  TGI: 21200 nM
TK-10 renal
  GI50: 2060 nM
  TGI: 30900 nM
HCT-116 colon
  GI50: 356 nM
  TGI: 3110 nM
SK-OV-3 ovarian
  GI50: 2590 nM
  TGI: 11500 nM
MDA-MB-231 breast
  GI50: 321 nM
  TGI: 3100 nM
MDA-MB-468 breast
  GI50: 2540 nM
  TGI: 14200 nM
ACHN renal
  GI50: 1540 nM
  TGI: 10300 nM
SNB-19 CNS
  GI50: 2620 nM
  TGI: 7930 nM
T-47D breast
  GI50: 1890 nM
  TGI: 17400 nM
RXF 393 renal
  GI50: 818 nM
  TGI: 2870 nM
786-0 renal
  GI50: 2680 nM
  TGI: 11800 nM
OVCAR-4 ovarian
  GI50: 3800 nM
  TGI: > 81000 nM
MCF7 breast
  GI50: 1910 nM
  TGI: 15400 nM
HCT-15 colon
  GI50: 2550 nM
  TGI: > 81000 nM
SK-MEL-28 melanoma
  GI50: 1240 nM
  TGI: 7050 nM
OVCAR-3 ovarian
  GI50: 3930 nM
  TGI: > 81000 nM
K-562 leukemia
  GI50: 728 nM
  TGI: > 81000 nM
MOLT-4 leukemia
  GI50: 1590 nM
  TGI: 4770 nM
HOP-62 NSCLC
  GI50: 912 nM
  TGI: 9900 nM
PC-3 prostate
  GI50: 2510 nM
  TGI: 24400 nM
NCI-H23 lung
  GI50: 842 nM
  TGI: 5330 nM
M14 melanoma
  GI50: 717 nM
  TGI: 3010 nM
U251 CNS
  GI50: 3620 nM
  TGI: > 81000 nM
LOX IMVI melanoma
  GI50: 812 nM
  TGI: 4350 nM
